Results as given in publication PMC10281575, “PfCRT mutations conferring piperaquine resistance in falciparum malaria shape the kinetics of quinoline drug binding and transport” (PLOS Pathogens, 2023).
Several values for one entry are separate records, joined by “and”; a condition that tells them apart may be missing. Identical values can stand only once.

Target: T1, PfCRT^Dd2_F145I (Plasmodium falciparum, UniProt Q8IBZ9, A220S/F145I/I356T/K76T/M74I/N326S/N75E/Q271E/R371I)
T1 construct: expressed in transfected cells; host or cells: Xenopus laevis oocytes injected with in vitro transcribed RNA (pSP64T)
T1 sequence (Q8IBZ9 1-424 M74I/N75E/K76T/F145I/A220S/Q271E/N326S/I356T/R371I): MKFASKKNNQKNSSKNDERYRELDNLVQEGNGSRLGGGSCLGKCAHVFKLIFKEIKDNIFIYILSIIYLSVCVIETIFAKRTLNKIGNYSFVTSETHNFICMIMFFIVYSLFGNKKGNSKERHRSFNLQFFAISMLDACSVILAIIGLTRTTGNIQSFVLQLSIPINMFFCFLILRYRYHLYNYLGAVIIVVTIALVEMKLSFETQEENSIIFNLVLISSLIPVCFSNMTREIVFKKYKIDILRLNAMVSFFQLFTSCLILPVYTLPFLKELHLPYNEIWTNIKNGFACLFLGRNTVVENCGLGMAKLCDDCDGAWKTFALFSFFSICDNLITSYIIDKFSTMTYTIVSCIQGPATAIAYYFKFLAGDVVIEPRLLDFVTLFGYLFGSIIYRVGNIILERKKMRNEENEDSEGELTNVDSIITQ
Experiment: Competition kinetics of drug transport (radiolabeled substrate plus cold inhibitor), PfCRT^Dd2_F145I-expressing oocytes
Format: cell-based
Experimental: To further characterize the kinetic relationship between CQ and PPQ, we performed a series of competition reactions. To this end, water-injected oocytes and PfCRT-expressing oocytes were incubated in medium containing one of seven concentrations of radio-labeled CQ and one of six concentrations of cold PPQ for 60 min before the amount of radio-labeled CQ uptake was determined. The rate of PfCRT-mediated CQ uptake was calculated for each condition by subtracting the corresponding value obtained for water-injected oocytes from those of PfCRT-expressing oocytes. The results were analyzed as a function of the CQ concentration (Fig 4A) and 16 different models of substrate competition were globally fit to the data by the least-squares method, using Python. The models were ranked, according to their Akaike information criterion difference (ΔAICC) and their Akaike weight (Fig 4B), with the most plausible model being the one with the lowest AICC (ΔAICC = 0) and the highest Akaike weight.
A complementary set of experiments was undertaken to investigate the kinetic mechanism by which PfCRT^Dd2_F145I accepts CQ and PPQ (Fig 6). […] These included a global fit of the substrate competition data to the 16 kinetic models (Fig 6), analysis of the secondary plots (Vmax,app and Vmax,app/KM,app as a function of the inhibitor concentration) (Fig 7A), a fractional velocity plot analysis (Fig 7B) and a comparison of the experimental data with the modelled data using the noncompetitive inhibition equation (Fig 7C to 7F). […] The fractional velocity plot illustrated the partial character of the noncompetitive inhibition mechanism by yielding a partiality factor β^CQ = 0.31 ± 0.04, by which PPQ reduces the transport velocity of CQ (Fig 7B). […] A 3D model of the kinetics between PfCRT^Dd2_F145I, CQ and PPQ, and analyses of the residuals as a function of substrate and inhibitor concentrations confirmed that the model was also an appropriate explanation for the mutant transporter (Fig 7C to 7F).
Drug transport assays were performed as previously described. Briefly, measurements of radiolabeled drug uptake were made over 1 h, unless otherwise specified. […] Where specified, one or more unlabeled drugs were also present at the indicated concentrations. The direction of drug transport in the assays is from the extracellular medium (pH 6) into the oocyte cytosol (pH 7.2), which corresponds to the efflux of CQ or PPQ from the acidic digestive vacuole (pH 5.2) into the parasite cytosol (pH 7.2). The uptake assays were terminated by removing the oocytes from the reaction medium and washing them three times with 2 mL of ice-cold ND96 buffer. Each oocyte was transferred to a separate scintillation vial and lysed by the addition of 200 μL of a 5% SDS solution. The radioactivity in the sample was measured using a liquid scintillation analyser Tri-Carb 4910 TR (PerkinElmer). Water-injected oocytes were analyzed in parallel as a negative control. The buffer from each condition was measured in duplicate in parallel to each experiment to transform counts per minute into pmol of drug. Drug uptake attributable to PfCRT was determined by subtracting the background uptake from water-injected oocytes from that of PfCRT-expressing oocytes. In all cases, at least three independent experiments were performed on oocytes from different frogs, and for each condition in an experiment, measurements were made from 10 oocytes per treatment.
The following equations were adopted from Segel (1993), and the reader is referred to that text for the assumptions made in the author’s approach in the derivation of each equation [31]. The concentration of substrate is denoted as [S1] and the concentration of the inhibiting substrate is denoted as [S2]. KS1 and KS2 are the dissociation constants for the respective substrate-protein complexes.
Analyses of the kinetic data were performed using SigmaPlot version 13.0 and Python. […]

## CCN(CC)CCCC(C)Nc1ccnc2cc(Cl)ccc12 (stereo not shown) [CQ, chloroquine]
10 µM CQ, 50 µM PPQ
  PfCRTDd2_F145I-mediated CQ transport: 0.59 pmol oocyte-1 h-1 and 0.39 pmol oocyte-1 h-1
10 µM CQ, 125 µM PPQ
  PfCRTDd2_F145I-mediated CQ transport: 0.68 pmol oocyte-1 h-1 and 0.58 pmol oocyte-1 h-1 and 0.47 pmol oocyte-1 h-1
10 µM CQ, 200 µM PPQ
  PfCRTDd2_F145I-mediated CQ transport: 0.27 pmol oocyte-1 h-1 and 0.32 pmol oocyte-1 h-1 and 0.33 pmol oocyte-1 h-1
10 µM CQ, 350 µM PPQ
  PfCRTDd2_F145I-mediated CQ transport: 0.43 pmol oocyte-1 h-1 and 0.31 pmol oocyte-1 h-1 and 0.46 pmol oocyte-1 h-1
50 µM CQ, 0 µM PPQ
  PfCRTDd2_F145I-mediated CQ transport: 3.80 pmol oocyte-1 h-1 and 4.28 pmol oocyte-1 h-1 and 2.84 pmol oocyte-1 h-1
50 µM CQ, 50 µM PPQ
  PfCRTDd2_F145I-mediated CQ transport: 3.24 pmol oocyte-1 h-1 and 2.4 pmol oocyte-1 h-1 and 3.22 pmol oocyte-1 h-1
50 µM CQ, 125 µM PPQ
  PfCRTDd2_F145I-mediated CQ transport: 3.47 pmol oocyte-1 h-1 and 2.37 pmol oocyte-1 h-1 and 2.11 pmol oocyte-1 h-1
50 µM CQ, 200 µM PPQ
  PfCRTDd2_F145I-mediated CQ transport: 2.85 pmol oocyte-1 h-1 and 2.54 pmol oocyte-1 h-1 and 2.07 pmol oocyte-1 h-1
50 µM CQ, 350 µM PPQ
  PfCRTDd2_F145I-mediated CQ transport: 1.72 pmol oocyte-1 h-1 and 1.78 pmol oocyte-1 h-1 and 2.56 pmol oocyte-1 h-1
50 µM CQ, 500 µM PPQ
  PfCRTDd2_F145I-mediated CQ transport: 1.90 pmol oocyte-1 h-1 and 2.40 pmol oocyte-1 h-1
100 µM CQ, 0 µM PPQ
  PfCRTDd2_F145I-mediated CQ transport: 5.25 pmol oocyte-1 h-1 and 7.33 pmol oocyte-1 h-1 and 8.14 pmol oocyte-1 h-1
100 µM CQ, 125 µM PPQ
  PfCRTDd2_F145I-mediated CQ transport: 4.86 pmol oocyte-1 h-1 and 5.68 pmol oocyte-1 h-1 and 5.61 pmol oocyte-1 h-1
100 µM CQ, 200 µM PPQ
  PfCRTDd2_F145I-mediated CQ transport: 4.12 pmol oocyte-1 h-1 and 4.69 pmol oocyte-1 h-1 and 4.23 pmol oocyte-1 h-1
100 µM CQ, 350 µM PPQ
  PfCRTDd2_F145I-mediated CQ transport: 3.37 pmol oocyte-1 h-1 and 4.27 pmol oocyte-1 h-1 and 5.15 pmol oocyte-1 h-1
200 µM CQ, 0 µM PPQ
  PfCRTDd2_F145I-mediated CQ transport: 12.53 pmol oocyte-1 h-1 and 12.79 pmol oocyte-1 h-1
200 µM CQ, 50 µM PPQ
  PfCRTDd2_F145I-mediated CQ transport: 14.25 pmol oocyte-1 h-1 and 10 pmol oocyte-1 h-1 and 10.59 pmol oocyte-1 h-1
200 µM CQ, 125 µM PPQ
  PfCRTDd2_F145I-mediated CQ transport: 10.11 pmol oocyte-1 h-1 and 9.30 pmol oocyte-1 h-1 and 9.95 pmol oocyte-1 h-1
200 µM CQ, 200 µM PPQ
  PfCRTDd2_F145I-mediated CQ transport: 7.48 pmol oocyte-1 h-1 and 7.15 pmol oocyte-1 h-1 and 10.15 pmol oocyte-1 h-1
200 µM CQ, 350 µM PPQ
  PfCRTDd2_F145I-mediated CQ transport: 6.25 pmol oocyte-1 h-1 and 7.4 pmol oocyte-1 h-1 and 8.42 pmol oocyte-1 h-1
200 µM CQ, 500 µM PPQ
  PfCRTDd2_F145I-mediated CQ transport: 7.88 pmol oocyte-1 h-1 and 6.35 pmol oocyte-1 h-1
300 µM CQ, 0 µM PPQ
  PfCRTDd2_F145I-mediated CQ transport: 13.73 pmol oocyte-1 h-1 and 19.15 pmol oocyte-1 h-1
300 µM CQ, 50 µM PPQ
  PfCRTDd2_F145I-mediated CQ transport: 13.84 pmol oocyte-1 h-1 and 14.19 pmol oocyte-1 h-1 and 16.04 pmol oocyte-1 h-1
300 µM CQ, 125 µM PPQ
  PfCRTDd2_F145I-mediated CQ transport: 11.05 pmol oocyte-1 h-1 and 9.73 pmol oocyte-1 h-1 and 15.82 pmol oocyte-1 h-1
300 µM CQ, 200 µM PPQ
  PfCRTDd2_F145I-mediated CQ transport: 10.02 pmol oocyte-1 h-1 and 12.63 pmol oocyte-1 h-1 and 9.83 pmol oocyte-1 h-1
300 µM CQ, 350 µM PPQ
  PfCRTDd2_F145I-mediated CQ transport: 9.31 pmol oocyte-1 h-1 and 9.21 pmol oocyte-1 h-1 and 10.66 pmol oocyte-1 h-1
300 µM CQ, 500 µM PPQ
  PfCRTDd2_F145I-mediated CQ transport: 9.09 pmol oocyte-1 h-1 and 11.47 pmol oocyte-1 h-1
400 µM CQ, 0 µM PPQ
  PfCRTDd2_F145I-mediated CQ transport: 14.23 pmol oocyte-1 h-1 and 18.19 pmol oocyte-1 h-1
400 µM CQ, 50 µM PPQ
  PfCRTDd2_F145I-mediated CQ transport: 15.01 pmol oocyte-1 h-1 and 14.7 pmol oocyte-1 h-1 and 18.28 pmol oocyte-1 h-1
400 µM CQ, 125 µM PPQ
  PfCRTDd2_F145I-mediated CQ transport: 14.33 pmol oocyte-1 h-1 and 12.62 pmol oocyte-1 h-1 and 13.88 pmol oocyte-1 h-1
400 µM CQ, 200 µM PPQ
  PfCRTDd2_F145I-mediated CQ transport: 9.98 pmol oocyte-1 h-1 and 13.36 pmol oocyte-1 h-1 and 12.15 pmol oocyte-1 h-1
400 µM CQ, 350 µM PPQ
  PfCRTDd2_F145I-mediated CQ transport: 7.72 pmol oocyte-1 h-1 and 13.35 pmol oocyte-1 h-1 and 10.83 pmol oocyte-1 h-1
500 µM CQ, 0 µM PPQ
  PfCRTDd2_F145I-mediated CQ transport: 19.16 pmol oocyte-1 h-1 and 17.86 pmol oocyte-1 h-1
500 µM CQ, 50 µM PPQ
  PfCRTDd2_F145I-mediated CQ transport: 16.43 pmol oocyte-1 h-1 and 15.64 pmol oocyte-1 h-1 and 17.36 pmol oocyte-1 h-1
500 µM CQ, 125 µM PPQ
  PfCRTDd2_F145I-mediated CQ transport: 14.97 pmol oocyte-1 h-1 and 16.69 pmol oocyte-1 h-1 and 12.9 pmol oocyte-1 h-1
